Test results as given in patent US8507506B2, “Theophylline derivative inhibits osteoporosis” (Kaohsiung Medical University, priority 2011, dated 2013).

Experiments:
Assay type in all cases: cell-based
[1] = test system: TRAP activity of RAW264.7 cells induced by RANKL; assay: TRAP activity assay; details: 10 ng/ml RANKL for 5 days, different concentrations, FIG. 4
Method: 10^3 cells were plated per well in 96-well plates. […] When the reaction fluid became yellow, 0.1 M, 100 μl/well NaOH was added to terminate the reaction, and OD405 was examined in 37° C. b) 3 μl/well supernatant was examined by Bio-Red DC Protein Assay to detect the protein concentration.

[2] = test system: TNF-α secretion by RAW264.7 cells; assay: ELISA, RANKL-induced secretion of TNF-α; details: RAW264.7, ELISA, FIG. 6
Method: (§1) Under RANKL stimulation, mononuclear RAW264.7 cells can secrete pro-inflammatory cytokines such as TNF-α, IL-1, IL-6, etc. ELISA is used to measure that KMUP-1 influences RANKL to induce the secretion of pro-inflammatory cytokines. […] 10^5 cells were plated per well in 24-well plates. […] After 24 hours reaction, the reaction fluid was centrifuged (13,000 rpm, 4° C., 20 minutes), and then the supernatant was tasted by ELISA kit (R&D system and eBioscience™) to detect the amount of TNF-α, IL-1β, IL-6, and IL-10. The experimental process is followed with the instructions of the kit.

[3] = test system: JNK phosphorylation in RAW264.7 cells; assay: Western blot, phosphorylation of JNK induced by RANKL; details: 7.5 μM and 10 μM, RANKL 15 minutes, FIG. 10
Method: (§2) MAP kinases including ERK, JNK and p38 are stimulated by RANKL to be phosphorylized and further influence the down-stream key transcription factors which induce the differentiation of osteoclast-like cells such as c-Fos, NFATc1, etc. Before estimating the drug effect, 10 ng/ml RANKL are used to induce the phosphorylation of ERK, JNK and p38 at different time points. […] It is shown that KMUP-1 can reduce the activation of MAP kinases induced by RANKL. […] The proteins were collected by scraping and were centrifuged (13,000 rpm, 4° C., 30 minutes). The supernatant was stored in an eppendorf in −80° C. • c) Concentrations of the proteins were examined by Bio-Red DC Protein Assay. After knowing the concentrations, the proteins were diluted to specific concentrations by adding ddH2O. One forth volume of the diluted proteins of sample buffer was added into the diluted proteins and was put in boiled water for 5 min and then was chilled on ice for 5 minutes. After short time centrifugation, the diluted proteins could be injected into wells of a gel. The gel was run at 100 V for 10 minutes until the proteins were driven to the intersection between a loading gel and a running gel. Then, the voltage was swopped to 200 V for 40 minutes. • d) A PVDF membrane was immersed in Methanol for 2 minutes. After two washes in ddH2O, the membrane was immersed in transfer buffer for 15 minutes. […]

[4] = test system: IL-1β secretion by RAW264.7 cells; assay: ELISA, RANKL-induced secretion of IL-1β; details: RAW264.7, ELISA, FIG. 6
Method: as §1

[5] = test system: MMP-9 enzyme activity of RAW264.7 cells; assay: Gelatin zymography, enzyme activity of MMP-9 induced by RANKL; details: 10 μM, RANKL 24 hours, FIG. 21
Method: KMUP-1 influences there major up-stream signal transduction pathways which are related to RANK/RANKL. Western blot is used to estimate the amount of matrix metalloproteinase (MMP)-2 and MMP-9 which are related to the dissolution of osteoclast-like cells, and the enzyme activity of MMP-2 and MMP-9 are estimated via Gelatin Zymography. […] After 24 hours reaction, the reaction fluid was centrifuged (13,000 rpm, 4° C., 20 minutes), and then the supernatant was stored in −80° C. • b) 10% gel preparation. 10 mg gelatin was added by 1 ml ddH2O and then was heated in water bath until the solution was clear. • c) Concentrations of the proteins were examined by Bio-Red DC Protein Assay. After knowing the concentrations, the proteins were diluted to specific concentrations by adding ddH2O. One forth volume of the diluted proteins of sample buffer was added into the diluted proteins. After shaking, the diluted proteins could be added into wells of the gel. Subsequently, 1× running buffer was added with the gel, and then the gel was run at 100 V for 10 minutes until the proteins were driven to the intersection between a loading gel and a running gel. Then, the voltage was swopped to 200 V for 60 minutes. • d) After electrophoresis, the loading gel was discarded, and the left gel was washed by TritonX-100 buffer for 30 minutes in room temperature twice. […]

[6] = test system: p38 phosphorylation in RAW264.7 cells; assay: Western blot, phosphorylation of p38 induced by RANKL; details: 7.5 μM and 10 μM, RANKL 15 minutes, FIG. 11
Method: as §2

SMILES: Cn1c(=O)c2c(ncn2CCN2CCN(c3ccccc3Cl)CC2)n(C)c1=O [KMUP-1, 7-[2-[4-(2-Chlorophenyl)piperazin-1-yl]ethyl] theophylline]
- TRAP activity induced by RANKL [1]: can be inhibited, and the inhibiting effect is related to dose
- RANKL-induced secretion of TNF-α [2]: presents a dose dependent inhibition phenomenon
- phosphorylation of JNK induced by RANKL [3]: can efficiently inhibit the phosphorylation of ERK, JNK and p38 induced by RANKL
- RANKL-induced secretion of IL-1 [4]: presents a dose dependent inhibition phenomenon
- enzyme activity of MMP-9 induced by RANKL [5]: can reduce the enzyme activity of MMP-2 and MMP-9
- phosphorylation of p38 induced by RANKL [6]: can efficiently inhibit the phosphorylation of ERK, JNK and p38 induced by RANKL
